Legend:
Rattus norvegicus [1] = species: Rattus norvegicus; assay: In vitro inhibition of norepinephrine (NE) uptake in synaptosomal preparation of rat brain; assay type: functional, organism-based
Rattus norvegicus [2] = species: Rattus norvegicus; assay: In vitro inhibition of serotonin uptake in synaptosomal preparation of rat brain; assay type: functional, organism-based
Mus musculus = assay: Compound was tested for the inhibition of tetrabenazine-induced sedation in mice, after peroral administration; assay type: functional; details: po
Rattus norvegicus [3] = species: Rattus norvegicus; assay: In vitro inhibition of dopamine (DA) uptake in synaptosomal preparation of rat brain; assay type: functional, organism-based
Rattus norvegicus [4] = assay: Compound was tested for the inhibition of tetrabenazine-induced sedation in rat, after peroral administration; failed to produce a 50%antagonism; assay type: functional; details: po
Rattus norvegicus [5] = assay: Compound was tested for the inhibition of tetrabenazine-induced sedation in rat, after peroral administration; assay type: functional; details: po

`CC(NC(C)(C)C)C(=O)c1cccc(Cl)c1` (stereo not given) [BUPROPION] showed an IC50 (Rattus norvegicus [1]) of 2.4 µM, an IC50 (Rattus norvegicus [2]) greater than 10 µM and an ED50 (Mus musculus) of 32 mg/kg. It also gave an IC50 (Rattus norvegicus [3]) of 0.9 µM and an ED50 (Rattus norvegicus [4]) greater than 100 mg/kg.

With `CN(C)CCCN1c2ccccc2CCc2ccccc21` [IMIPRAMINE] the ED50 (Rattus norvegicus [5]) was 13.4 mg/kg, the IC50 (Rattus norvegicus [1]) was 0.04 µM and the IC50 (Rattus norvegicus [2]) was 0.5 µM. It also gave an ED50 (Mus musculus) of 9 mg/kg and an IC50 (Rattus norvegicus [3]) greater than 10 µM.

With `C[C@@H]1CO[C@@](O)(c2cc(F)cc(F)c2)[C@H](C)N1` [MANIFAXINE] the ED50 (Rattus norvegicus [5]) was 1.4 mg/kg, the IC50 (Rattus norvegicus [1]) was 0.07 µM and the IC50 (Rattus norvegicus [2]) was greater than 10 µM. It also gave an ED50 (Mus musculus) of 6.2 mg/kg and an IC50 (Rattus norvegicus [3]) of 1 µM.
